In US6313095A, “Antiherpes tetrapeptide derivatives having a substituted aspartic acid side chain” (Boehringer Ingelheim (Canada), Ltd., priority 1989, dated 2001):
Where a SMILES comes first, the peptide text is derived from it. [ ]: non-standard residue; d: D form. The star is where a group is joined. Gly(1-COOH-cBu) = N[C@H](C(=O)O)C1(C(=O)O)CCC1; cPrCO(2,2,3,3-Me4) = CC1(C)C(C(=O)*)C1(C)C; Benzoyl(2-Ph) = O=C(c1ccccc1-c1ccccc1)*; Pentanoyl(4-Me) = CC(C)CCC(=O)*; Butanoyl(2-Et) = CCC(CC)C(=O)*; O(2S-octyl) = CCCCCC[C@H](C)O*; Tle = CC(C)(C)[C@H](N)C(=O)O; Pyrrolidide = C1CCN(*)C1; X4 = CC1CCCC(C)C1C(=O)*; Bn = c1ccc(C*)cc1

These compounds were tested against T1, HSV-1 ribonucleotide reductase (Human herpesvirus 1, UniProt P08543) (assay: Inhibition of Herpes Simplex Virus (HSV, Type 1) Ribonucleotide Reductase). Settings: concentration producing 50% of the maximal inhibition of enzyme activity; partially purified enzyme; mean of four assays.
T1 construct: HSV-1 ribonucleotide reductase (partially purified) was obtained from quiescent BHK-21/C13 cells infected with strain F HSV-1 virus; endogenous in cells; host or cells: quiescent BHK-21/C13 (hamster) cells infected with HSV-1 strain F; partially purified enzyme preparation
Format: biochemical, herpes simplex virus type 1 (strain F)
From the text: Inhibition of Herpes Simplex Virus (HSV, Type 1) Ribonucleotide Reductase
HSV-1 ribonucleotide reductase (partially purified) was obtained from quiescent BHK-21/C13 cells infected with strain F HSV-1 virus at 10 plaque forming units/cell as described by E. A. Cohen et al., J. Gen. Virol., 66, 733 (1985).
b) Assay and Results for Exemplified Peptides
By following the procedure described by P. Gaudreau et al., J. Biol, Chem., 262, 12413 (1987), the assay results listed in the following table were obtained. The assay result for each peptide is expressed as the concentration of the peptide producing 50% of the maximal inhibition (IC50) of enzyme activity. The number of units of the enzyme preparation used in each assay was constant, based on the specific activity of the enzyme preparation. The results are relative to the activity obtained in control experiments without peptide and represent the mean of four assays that varied less than 10% with each other.

T1 sequence (P08543 whole entry): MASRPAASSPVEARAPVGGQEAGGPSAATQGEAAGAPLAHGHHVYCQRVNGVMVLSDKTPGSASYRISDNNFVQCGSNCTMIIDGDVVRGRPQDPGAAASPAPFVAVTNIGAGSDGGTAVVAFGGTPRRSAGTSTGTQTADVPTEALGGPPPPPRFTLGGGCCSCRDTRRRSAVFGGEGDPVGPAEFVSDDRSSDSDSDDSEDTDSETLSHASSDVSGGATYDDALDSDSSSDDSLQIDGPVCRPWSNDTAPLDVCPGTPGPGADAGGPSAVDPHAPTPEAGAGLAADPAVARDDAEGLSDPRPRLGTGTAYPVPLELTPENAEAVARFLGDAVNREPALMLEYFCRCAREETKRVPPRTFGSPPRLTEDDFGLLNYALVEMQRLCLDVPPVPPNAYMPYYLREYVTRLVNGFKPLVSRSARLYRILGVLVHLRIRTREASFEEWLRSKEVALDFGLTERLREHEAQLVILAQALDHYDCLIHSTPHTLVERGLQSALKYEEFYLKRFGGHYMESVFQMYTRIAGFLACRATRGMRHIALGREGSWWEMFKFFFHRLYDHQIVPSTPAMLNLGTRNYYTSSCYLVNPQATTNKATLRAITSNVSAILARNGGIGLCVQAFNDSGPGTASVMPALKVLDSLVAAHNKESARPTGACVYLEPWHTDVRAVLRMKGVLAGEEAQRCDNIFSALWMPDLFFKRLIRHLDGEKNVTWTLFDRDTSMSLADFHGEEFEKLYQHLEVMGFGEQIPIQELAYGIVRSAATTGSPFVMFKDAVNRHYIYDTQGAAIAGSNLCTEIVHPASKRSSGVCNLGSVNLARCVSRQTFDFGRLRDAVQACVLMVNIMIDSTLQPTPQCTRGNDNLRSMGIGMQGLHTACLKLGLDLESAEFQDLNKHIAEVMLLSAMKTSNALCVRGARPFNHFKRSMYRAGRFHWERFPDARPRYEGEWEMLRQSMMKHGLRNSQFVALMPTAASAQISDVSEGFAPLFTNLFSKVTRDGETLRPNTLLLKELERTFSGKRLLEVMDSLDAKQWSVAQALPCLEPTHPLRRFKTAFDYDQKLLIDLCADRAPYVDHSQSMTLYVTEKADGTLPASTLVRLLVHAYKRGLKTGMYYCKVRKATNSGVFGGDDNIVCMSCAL

| Compound | IC50 |
| --- | --- |
| CCC(CC)C(=O)N[C@H](C(=O)N[C@@H](CC(=O)N1CCCC1)C(=O)N[C@@H](CC(=O)O)C(=O)NCCC(C)(C)C)[C@@H](C)OC [(C2 H5)2 CHCO-Thr(OMe)-Asp(pyrrolidino)-Asp-NHCH2 CH2 C(CH3)3] | 75 µM |
| CCC(CC)C(=O)N[C@H](C(=O)N[C@@H](CC(=O)N1CCCC1)C(=O)N[C@@H](CC(=O)O)C(=O)NCCC(C)(C)C)C(C)(C)C [(C2 H5)2 CHCO-Tbg-Asp(pyrrolidino)-Asp-NHCH2 CH2 C(CH)3] | 18 µM |
| CCC(CC)C(=O)N[C@H](C(=O)N[C@@H](CC(=O)N1CCCC1)C(=O)N[C@@H](CC(=O)O)C(=O)NCCC(C)(C)C)c1ccccc1 [(C2 H5)2 CHCO-Phg-Asp(pyrrolidino)-Asp-NHCH2 CH2 C(CH3)3] | 40 µM |
| CCC(CC)C(=O)N[C@@H](Cc1cccs1)C(=O)N[C@@H](CC(=O)N1CCCC1)C(=O)N[C@@H](CC(=O)O)C(=O)NCCC(C)(C)C [(C2 H5)2 CHCO-NHCH(2-thienylmethyl)CO-Asp(pyrrolidino)-Asp-NHCH2 CH2 C(CH3)3] | 60 µM |
| CCCCCC[C@H](C)OC(=O)C[C@H](NC(=O)[C@@H](NC(=O)CCC(C)C)[C@@H](C)CC)C(=O)N[C@@H](CC(=O)O)C(=O)N[C@@H](CC(C)C)C(=O)O [(CH3)2 CHCH2 CH2 CO-Ile-Asp(1-methylheptyloxy)-Asp-Leu-OH] ({Pentanoyl(4-Me)}-ID(O(2S-octyl))DL-OH) | > 10 µM |
| CCCCCC[C@H](C)OC(=O)C[C@H](NC(=O)[C@@H](NC(=O)C(CC)CC)C(C)(C)C)C(=O)N[C@H](C(=O)N[C@@H](CC(C)C)C(=O)O)C1(C(=O)O)CCC1 [(C2 H5)2 CHCO-Tbg-Asp(1-methylheptyloxy)-Asp(cyBu)-Leu-OH] ({Butanoyl(2-Et)}-[Tle]D(O(2S-octyl))[Gly(1-COOH-cBu)]L-OH) | 0.5 µM |
| CC[C@H](C)[C@H](NC(=O)CCC(C)C)C(=O)N[C@@H](CC(=O)N1CCCC1)C(=O)N[C@@H](CC(=O)O)C(=O)N[C@@H](CC(C)C)C(=O)O [(CH3)2 CHCH2 CH2 CO-Ile-Asp(pyrrolidino)-Asp-Leu-OH] ({Pentanoyl(4-Me)}-ID(Pyrrolidide)DL-OH) | 3 µM |
| CCC(CC)C(=O)N[C@H](C(=O)N[C@@H](CC(=O)N1CCCC1)C(=O)N[C@@H](CC(=O)O)C(=O)N[C@H](CO)CC1CCCCC1)C(C)(C)C [(C2 H5)CHCO-Tbg-Asp(pyrrolidino)-Asp-NH--CH(cyclohexylmethyl)CH2 OH] | 10.5 µM |
| CC[C@H](C)[C@H](NC(=O)c1ccccc1-c1ccccc1)C(=O)N[C@@H](CC(=O)N1CCCC1)C(=O)N[C@@H](CC(=O)O)C(=O)N[C@@H](CC(C)C)C(=O)O [2-Biphenylylcarbonyl-Ile-Asp(pyrrolidino)-Asp-Leu-OH] ({Benzoyl(2-Ph)}-ID(Pyrrolidide)DL-OH) | 3.6 µM |
| CCC(CC)C(=O)N[C@H](C(=O)N[C@@H](CC(=O)N1CCCC1)C(=O)N[C@@H](CC(=O)O)C(=O)N[C@@H](CC(C)C)C(=O)O)[C@@H](C)OCc1ccccc1 [(C2 H5)2 CHCO-Thr(OBz)-Asp(pyrrolidino)-Asp-Leu-OH] ({Butanoyl(2-Et)}-T(Bn)D(Pyrrolidide)DL-OH) | 3.4 µM |
| CCC(CC)C(=O)N[C@H](C(=O)N[C@@H](CC(=O)N1CCCC1)C(=O)N[C@@H](CC(=O)O)C(=S)N[C@@H](CC(C)C)C(=O)O)C(C)(C)C [(C2 H5)2 CHCO-Tbg-Asp(pyrrolidino)-Asp.PSI.[CSNH]Leu-OH] | 1.9 µM |
| CC[C@H](C)[C@H](NC(=O)C1C(C)(C)C1(C)C)C(=O)N[C@@H](CC(=O)N1CCCC1)C(=O)N[C@@H](CC(=O)O)C(=O)N[C@@H](CC(C)C)C(=O)O [(2,2,3,3-Tetramethylcyclopropyl)carbonyl-Ile-Asp(pyrrolidino)-Asp-Leu-OH] ({cPrCO(2,2,3,3-Me4)}-ID(Pyrrolidide)DL-OH) | 1.4 µM |
| CC[C@H](C)[C@H](NC(=O)C1C(C)CCCC1C)C(=O)N[C@@H](CC(=O)N1CCCC1)C(=O)N[C@@H](CC(=O)O)C(=O)N[C@@H](CC(C)C)C(=O)O (stereo partly drawn) [(2,6-Dimethylcyclohexyl)carbonyl-Ile-Asp(pyrrolidino)-Asp-Leu-OH] (X4-ID(Pyrrolidide)DL-OH) | 2.1 µM |
| CCC(CC)C(=O)N[C@H](C(=O)N[C@@H](CC(=O)N1CCCC1)C(=O)N[C@H](C(=O)N[C@@H](CC(C)C)C(=O)O)C(CC)(CC)C(=O)O)C(C)(C)C [(C2 H5)2 CHCO-Tbg-Asp(pyrrolidino)-Asp(diEt)-Leu-OH] | 0.1 µM |
